Measurements: patent US8048900B2, “Use of 15-lipoxygenase inhibitors for treating obesity” (Genfit S.A., priority 2006, dated 2011)
Like-named read-outs stand apart in the source and are kept apart here.

How the values were obtained:
15-LO = 15-LO inhibition, cited from earlier work
[1] = tested on: human abdominal visceral PA; test: aP2 marker expression during differentiation of human abdominal visceral pre-adipocytes (RT-PCR / RT-QPCR); type: cell-based
Method: (§1) HWP from Promocell are maintained in PA growth medium (0.4% ECGS/H, 5% FCS, 10 ng/ml EGF, 1 μg/ml hydrocortisone, 50 ng/ml amphotericin B, 50 μg/ml gentamycin) until confluence. When cells reach confluence, they are differentiated for 3 days in PA differentiation medium (8 μg/ml d-biotin, 0.5 μg/ml recombinant human insulin, 400 ng/ml dexamethasone, 44 μg/ml IBMX, 9 ng/ml L-thyroxin, 3 μg/ml ciglitazone, 50 ng/ml amphotericin B, 50 ng/ml gentamycin), then cultured to the terminal differentiation stage in adipocyte nutritive medium (3% FCS, 8 μg/ml d-biotin, 0.5 μg/ml recombinant human insulin, 400 ng/ml dexamethasone, 50 ng/ml amphotericin B, 50 μg/ml gentamycin). PA from Cambrex are maintained in PA growth medium (10% FCS, 100 U/ml penicillin, 100 μg/ml streptomycin) until confluence, then the medium is replaced by differentiation medium (10% FCS, 10 μg/ml recombinant human insulin, 1 μM dexamethasone, 500 μM IBMX, 200 μM indomethacin, 100 U/ml penicillin, 100 μg/ml streptomycin) throughout the differentiation process. Extraction of RNA and Analysis of 15-LO-1 and aP2 Gene Expression by RT-PCR and RT-QPCR
Human abdominal visceral PA from several donors are differentiated as described in example 4. PD146176 diluted in DMSO is added when the PA reached confluence (D0) and is maintained in the medium during the differentiation of PA to adipocytes. DMSO at 0.1% final concentration is added to the culture medium as negative control.
aP2 (adipocyte lipid-binding protein), like adiponectin, is a marker of adipocyte differentiation. Total RNA is extracted from the cells at different times during differentiation (D3, D7) as described in example 3 and expression of the aP2 marker is analyzed by RT-PCR or RT-QPCR as described in examples 1 and 2. Relative expression is reported with reference to the day of confluence (D0) and normalized to cyclophilin expression.

[2] = tested on: human abdominal visceral PA; test: Adiponectin secretion during differentiation of human abdominal visceral pre-adipocytes; type: cell-based; conditions: culture supernatant, D7 of differentiation, treated from D0, PA culture No. 3 passage 4
Method: as §1, with “Extraction of RNA and Analysis of 15-LO-1 and aP2 Gene Expression by RT-PCR and RT-QPCR” left out
Adiponectin is a factor secreted by adipocytes and, like aP2, serves as a marker of adipocyte differentiation in our cultures. Adiponectin concentrations is determined in culture supernatants at different times during differentiation using the Quantikine human adiponectin/ACRP30 kit according to the supplier's instructions (R&D, Minneapolis, Minn., USA).

3T3-L1 cells [3] = test: 3T3-L1 cell morphology during adipocyte differentiation; type: cell-based, mouse; conditions: addition at D0, photographs during differentiation
Method: (§2) The mouse PA 3T3-L1 cell line (ATCC) is maintained in DMEM (Dulbecco's Modified Eagle's minimal essential Medium) supplemented with 10% FCS, L-glutamine and a penicillin/streptomycin mixture. At confluence (D0), 3T3-L1 cells are differentiated by a two-day treatment with a mixture of dexamethasone (0.1 μM), isobutylmethylxanthine (0.25 mM) and insulin (0.4 μM). Cells are then maintained on insulin for another 14 days until differentiation is complete. Photographs are taken at different times after confluence in order to visually follow the differentiation process.
(§3) PD146176 is added to the 3T3-L1 cells when they reach confluence (D0) and is maintained throughout the differentiation process with replacement every other day at the same time as the insulin.

3T3-L1 cells [4] = test: Quantification of 3T3-L1 differentiation with AdipoRed; type: cell-based, mouse; conditions: addition at D0, starting from D3 of differentiation
Method: as §2, §3
The gradual accumulation of intracellular droplets is also used as a functional marker of differentiation to adipocytes. To quantify this accumulation the 3T3-L1 cells are differentiated in 96-well microtiter plates. The plates are removed from the incubator on the day of the assay in order to reequilibrate to room temperature. The medium is removed, the cells carefully rinsed with 200 μl PBS, and 200 μl PBS are then added to each well followed by 5 μl AdipoRed reagent (Cambrex, Paris, France). The plates are mixed before measuring fluorescence on a fluorimeter at an excitation wavelength of 485 nm and an emission wavelength of 535 nm.

3T3-L1 cells [5] = test: Assay of intracellular triglycerides in 3T3-L1 cells; type: cell-based, mouse
Method: The mouse PA 3T3-L1 cell line (ATCC) is maintained in DMEM (Dulbecco's Modified Eagle's minimal essential Medium) supplemented with 10% FCS, L-glutamine and a penicillin/streptomycin mixture. At confluence (D0), 3T3-L1 cells are differentiated by a two-day treatment with a mixture of dexamethasone (0.1 μM), isobutylmethylxanthine (0.25 mM) and insulin (0.4 μM). Cells are then maintained on insulin for another 14 days until differentiation is complete. Photographs are taken at different times after confluence in order to visually follow the differentiation process. PD146176 is added to the 3T3-L1 cells when they reach confluence (D0) and is maintained throughout the differentiation process with replacement every other day at the same time as the insulin. To assay intracellular triglycerides, the 3T3-L1 cells are differentiated in 24-well microtiter plates. Cells are washed three times in PBS, then 500 μl of homogenization buffer (150 mM NaCl, Tris HCL pH 8, 0.1% Triton X-100) are added to each well. The cells are scraped into a tube and lysed by sonication for 10 seconds at 40 watts. The lysate is then filtered on a 0.2 μM millipore filter. The assay is carried out on 125 μl of the resulting lysate using the Triglyceride L-type kit (Wako). The assay is normalized for the protein content of the lysates.

3T3-L1 cells [6] = test: aP2 and LPL expression by RT-QPCR in 3T3-L1 cells during differentiation; type: cell-based, mouse; conditions: addition at D0, starting from D3 of differentiation
Method: as §2, §3
Total RNA is extracted at different times during differentiation as described in example 3 and expression of the aP2 and LPL (lipoprotein lipase) genes is analyzed by RT-QPCR according to the method described in example 2 (see Table 9).

rat PA [7] = test: Rat primary PA morphology during adipocyte differentiation; type: cell-based; conditions: 2.2 μM added at D0
Method: (§4) Cells from the VS fraction (isolated by the same method as that described in example 3) are seeded in 6-well plates at a density of 80,000 cells/cm^2 in medium 199 (Gibco) supplemented with 10% FCS and a penicillin/streptomycin mixture. After a 16-hour incubation to allow cell adherence, the wells are gently rinsed with PBS to remove any non-adherent material. The cells are grown to confluence (D0) at which time the medium 199 is removed and replaced by ITT medium (DME/Ham's F12, 15 mM NaHCO3, 15 mM Hepes, 33 μm biotin, 17 μM panthotenate, 0.5 μM human insulin, 0.2 nM triiodothyronine and antibiotics) without addition of serum. Cells are maintained in this medium to enable differentiation; the medium is changed every 2-3 days during the differentiation process.
(§5) Caffeic acid (2.2 μM) was added when the rat PA reach confluence (D0) and is maintained during the adipocyte differentiation process. At a concentration of 2.2 μM, caffeic acid is considered as a selective inhibitor of 15-LO (Shureiqi I, Chen D, Lee J J, Yang P, Newman R A, Brenner D E, Lotan R, Fischer S M and Lippman S M, 2000). DMSO is added to 0.1% final concentration to the culture medium as negative control.

rat PA [8] = test: aP2 expression in rat primary PA during adipocyte differentiation; type: cell-based; conditions: 2.2 μM added at D0, read at D3
Method: as §4
as §5, with “DMSO is added to 0.1% final concentration to the culture medium as negative control.” left out
Total RNA is extracted at different times during differentiation according to the method described in example 3 and aP2 and LPL gene expression is analyzed by quantitative RT-PCR as described in example 2 (see Table 10).

[9] = value quoted from prior patents

In the case of `COc1ccc(C(=O)Nc2ccc(Cl)c(Cl)c2)cc1N` [3-amino-N-(3,4-dichlorophenyl)-4-methoxy-benzamide], the IC50 (15-LO; [9]) is listed as 10 nM.

In the case of `c1ccc2c(c1)SCc1c-2[nH]c2ccccc12` [PD146176, 6,11-dihydro-5-thia-11-aza-benzo[a]-fluorene], the “expression of the aP2 marker” value ([1]; RT-PCR, D3 of differentiation, PA culture No. 1 passage 7, increasing concentrations added at D0) is reported as “decreases the expression of the aP2 marker in a dose-dependent manner”, the “inhibition of 15-LO-1 expression” value ([1]; RT-QPCR, D7, 3 μM from D0, PA culture No. 2) is reported as “almost completely” and the “inhibition of 15-LO-1 expression” value ([1]; RT-QPCR, D7, 3 μM from D0, PA culture No. 3) is reported as 90%. The aP2 expression ([1]; RT-QPCR, D7 of differentiation, 3 μM from D0, PA cultures No. 2 and No. 3, vs DMSO-treated or untreated cells) was “strongly inhibited”, the IC50 (15-LO; value quoted from prior literature/patents) was 500 to 800 nM and the IC50 (15-LO; [9]) was 200 nM. The adiponectin secretion [2] was “sharply decreased”, the “lipid accumulation in the cells (morphology)” value (3T3-L1 cells [3]) was “dose-dependent inhibition of lipid accumulation” and the AdipoRed staining (3T3-L1 cells [4]) was “sharply decreases AdipoRed staining in a dose-dependent manner”. For the same compound, the “decrease in triglyceride accumulation relative to the control” value (3T3-L1 cells [5]; 10 μM, D10) was 80%, the triglyceride accumulation (3T3-L1 cells [5]; addition at D0) was “dose-dependent decrease” and the “expression of LPL marker” value (3T3-L1 cells [6]) was “dose-dependent decrease”. For the same compound, the “expression of aP2 marker” value (3T3-L1 cells [6]) was “dose-dependent decrease”.

In the case of `COc1ccc(-c2cc3cc(F)c(F)cc3[nH]2)cc1NS(=O)(=O)NC(=O)OCC(C)C` [[[[5-(5,6-difluoro-1H-indol-2-yl)-2-methoxyphenyl]amino]sulfonyl]carabamic acid isobutyl ester], the IC50 (15-LO; [9]) is given as 14 nM.

In the case of `O=C(O)/C=C/c1ccc(O)c(O)c1` [caffeic acid], the “lipid accumulation in the cells (morphology)” value (rat PA [7]) is reported as “inhibition of lipid accumulation” and the aP2 expression (rat PA [8]) is reported as “decreases aP2 expression”.
